Entries after “also recorded” stand apart in the source; their conditions may differ. Where a name gives a salt, the structure may show the parent alone.
Tests used:
[1] = tested on: BDNF-gene exon-IV promoter construct; experiment: Luciferase-based reporter gene assay with BDNF-gene exon-IV promoter construct in SH-SY5Y cells; assay type: cell-based, human; settings: 48 h incubation, fluoxetine 3, 5, 10 μM or venlafaxine 10, 30, 50 μM; for change of luciferase reporter gene activity (luminescence), methylated construct: Sss1-methylated BDNF-gene exon-IV promoter in pGL4.14, SH-SY5Y; for change of luciferase reporter gene activity (luminescence), unmethylated construct: unmethylated BDNF-gene exon-IV promoter in pGL4.14, SH-SY5Y, hydrochloride
SH-Sy5Y cells = experiment: CellTiter-Glo Luminescent Cell Viability Assay (cytotoxic concentrations); settings: 10 μM, 30 μM, 50 μM Venlafaxine
Protocol: Cells were maintained at 37° C. in a humidified atmosphere of 5% CO2 in atmosphere. To determine cytotoxic concentrations of fluoxetine and venlafaxine by CellTiter-Glo Luminescent Cell Viability Assay (Promega, Madison, Wis.) 1.5×10^5 cells were plated in 96 well plates and grown for 24 hours. Three wells at a time were incubated with different amounts of fluoxetine hydrochloride or venlafaxine hydrochloride (both Sigma-Aldrich Germany, Taufkirchen), both solved in sterile deionized water at 4 mg/mL. […] After incubation for 24 hours cytotoxicity was documented by microscope photography and measured using a GloMax Multi+ Detection System (Promega, Madison, Wis.).

Row | SMILES | change of luciferase reporter gene activity (luminescence), methylated construct [1] | change of luciferase reporter gene activity (luminescence), unmethylated construct [1] | cytotoxicity at the concentrations used (SH-Sy5Y cells)
1 | CNCCC(Oc1ccc(C(F)(F)F)cc1)c1ccccc1 (centres unmarked) [fluoxetine, fluoxetine hydrochloride] | did not change expression levels | decrease of reporter gene activity; also recorded: significant decrease of luciferase expression | 
2 | COc1ccc(C(CN(C)C)C2(O)CCCCC2)cc1 (centres unmarked) [venlafaxine, venlafaxine hydrochloride] | did not change expression levels | decrease of reporter gene activity; also recorded: significant decrease of luciferase expression | non-toxic
